# From patent US9999650B2, “Peptide and peptidomimetic inhibitors” (Ra Pharmaceuticals, Inc., priority 2012, dated 2018)
# Numbered stars: 1 amine (or outer) side, 2 acyl side, 3 side chain; on linkers, the order of the positions; unused ones are H or OH. Bridge positions count the residues as written; N and C are the ends. Square brackets hold non-standard residues; d marks the D form. Peptide text beside a SMILES is read from it. mXylylene = c1cc(C[*:1])cc(C[*:2])c1; NMeY = CN[C@@H](Cc1ccc(O)cc1)C(=O)O; NMeT = CN[C@H](C(=O)O)[C@@H](C)O; Phg = N[C@H](C(=O)O)c1ccccc1; Tle = CC(C)(C)[C@H](N)C(=O)O; NMeS = CN[C@@H](CO)C(=O)O
# Legend:
# Assay type in all cases: biochemical
# Factor Xa = biological target: T1, Factor Xa (Homo sapiens, UniProt P00742); assay: Inhibitor specificity IC50 assay, Factor Xa (Boc-Gln-Gly-Arg-AMC); details: substrate Boc-Gln-Gly-Arg-AMC
# T1 construct: Factor Xa (Enzyme Research Laboratories, South Bend, Ind.); purchased Enzyme Research Laboratories
# Protocol: (§1) Activated human plasma kallikrein (Enzyme Research Laboratories, HPKa 1303) was reacted with H-Pro-Phe-Arg-7-amido-4-methylcoumarin (H-Pro-Pre-Arg-AMC) (a fluorogenic substrate for plasma as well as pancreatic and urinary kallikreins; Bachem I-1295) and candidate inhibitory peptides to determine the IC50 of the inhibitor.
# (§2) Ten 8-fold serial dilutions of peptides (10 mM DMSO stocks) were performed in DMSO and then added to TCNB (50 mM Tris-HCl pH 7.2, 150 mM NaCl, 10 mM CaCl2, 0.05% Brij-35) and sonicated. 50 μL of the peptide dilutions were added to microtitre plates (96 well, black non-binding surface, Corning, 3650) and incubated for 5 minutes at room temperature with 4 nM activated human kallikrein (final concentration after addition of fluorogenic substrate: 1 nM). The samples were then incubated for 1 hour at room temperature with 2 mM H-Pro-Phe-Arg-AMC (final concentration 500 μM). Relative Fluorescence Units (RFU) were measured at excitation/emission 360 nm/460 nm by a SpectraMax M3.
# (§3) To determine the specificity of peptide inhibitors, an IC50 assay, as described in Example 4, was performed on a variety of serine proteases related to human plasma kallikrein. The enzymes tested include mouse plasma kallikrein (R&D Systems, Minneapolis, Minn.), and the human enzymes Factor VIIa (Enzyme Research Laboratories, South Bend, Ind.), Factor Xa (Enzyme Research Laboratories, South Bend, Ind.), Factor XIa (Enzyme Research Laboratories, South Bend, Ind.), Factor XIIa (Enzyme Research Laboratories, South Bend, Ind.), tissue kallikrein KLK13 (R&D Systems, Minneapolis, Minn.), thrombin (Enzyme Research Laboratories, South Bend, Ind.) and plasmin (Enzyme Research Laboratories, South Bend, Ind.).
# (§4) Each enzyme was tested with the following specific fluorgenic substrates (available from Bachem; Torrance, Calif.): mouse plasma kallikrein (Pro-Phe-Arg-AMC), Factor VIIa (Boc-Val-Pro-Arg-AMC), Factor Xa (Boc-Gln-Gly-Arg-AMC), Factor XIa (Boc-Gln-Gly-Arg-AMC), Factor XIIa (Boc-Gln-Gly-Arg-AMC), KLK13 (Boc-Val-Pro-Arg-AMC), thrombin (Boc-Val-Pro-Arg-AMC) and plasmin (Boc-Val-Leu-Lys-AMC). Peptide inhibitors R2006, R2010, R2012, R2019, R2023, R2030, R2036, R2041, R2047, R2104 and R2051 were assayed.
# Factor XIa = biological target: T2, Factor XIa (Homo sapiens, UniProt P03951); assay: Inhibitor specificity IC50 assay, Factor XIa (Boc-Gln-Gly-Arg-AMC); details: substrate Boc-Gln-Gly-Arg-AMC
# T2 construct: Factor XIa (Enzyme Research Laboratories, South Bend, Ind.); purchased Enzyme Research Laboratories
# Protocol: as §1, §2, §3, §4
# tissue kallikrein KLK13 = biological target: T3, tissue kallikrein KLK13 (Homo sapiens, UniProt Q9UKR3); assay: Inhibitor specificity IC50 assay, KLK13 (Boc-Val-Pro-Arg-AMC); details: substrate Boc-Val-Pro-Arg-AMC
# T3 construct: purchased R&D Systems
# T3 sequence (Q9UKR3 17-277): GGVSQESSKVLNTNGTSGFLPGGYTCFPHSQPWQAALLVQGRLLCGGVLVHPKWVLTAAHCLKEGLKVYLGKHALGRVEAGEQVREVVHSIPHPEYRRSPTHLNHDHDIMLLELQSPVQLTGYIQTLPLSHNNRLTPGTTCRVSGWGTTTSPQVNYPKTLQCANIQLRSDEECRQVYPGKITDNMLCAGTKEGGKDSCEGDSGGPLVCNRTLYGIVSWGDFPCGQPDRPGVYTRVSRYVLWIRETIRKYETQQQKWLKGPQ
# Protocol: as §1, §2, §3, §4
# plasmin = biological target: T4, plasmin (Homo sapiens, UniProt P00747); assay: Inhibitor specificity IC50 assay, plasmin (Boc-Val-Leu-Lys-AMC); details: substrate Boc-Val-Leu-Lys-AMC
# T4 construct: plasmin (Enzyme Research Laboratories, South Bend, Ind.); purchased Enzyme Research Laboratories
# Protocol: as §1, §2, §3, §4
# thrombin = biological target: T5, thrombin (Homo sapiens, UniProt P00734); assay: Inhibitor specificity IC50 assay, thrombin (Boc-Val-Pro-Arg-AMC); details: substrate Boc-Val-Pro-Arg-AMC
# T5 construct: thrombin (Enzyme Research Laboratories, South Bend, Ind.); purchased Enzyme Research Laboratories
# Protocol: as §1, §2, §3, §4
# Factor XIIa = biological target: T6, Factor XIIa (Homo sapiens, UniProt P00748); assay: Inhibitor specificity IC50 assay, Factor XIIa (Boc-Gln-Gly-Arg-AMC); details: substrate Boc-Gln-Gly-Arg-AMC
# T6 construct: Factor XIIa (Enzyme Research Laboratories, South Bend, Ind.); purchased Enzyme Research Laboratories
# T6 sequence (P00748 373-615 limits assumed): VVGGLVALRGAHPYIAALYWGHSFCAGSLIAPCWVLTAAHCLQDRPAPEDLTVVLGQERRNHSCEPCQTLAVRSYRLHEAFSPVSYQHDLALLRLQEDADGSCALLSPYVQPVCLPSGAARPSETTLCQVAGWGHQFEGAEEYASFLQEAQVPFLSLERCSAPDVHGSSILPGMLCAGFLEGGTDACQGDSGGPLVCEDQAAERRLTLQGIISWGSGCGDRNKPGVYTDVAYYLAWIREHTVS
# Protocol: as §1, §2, §3, §4
# Factor VIIa = biological target: T7, Factor VIIa (Homo sapiens, UniProt P08709); assay: Inhibitor specificity IC50 assay, Factor VIIa (Boc-Val-Pro-Arg-AMC); details: substrate Boc-Val-Pro-Arg-AMC
# T7 construct: Factor VIIa (Enzyme Research Laboratories, South Bend, Ind.); purchased Enzyme Research Laboratories
# T7 sequence (P08709 61-212 limits assumed): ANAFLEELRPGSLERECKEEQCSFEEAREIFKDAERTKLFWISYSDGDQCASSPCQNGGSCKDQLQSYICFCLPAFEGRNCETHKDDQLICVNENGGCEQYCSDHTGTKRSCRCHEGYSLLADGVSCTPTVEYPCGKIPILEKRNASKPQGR
# T7 sequence (P08709 213-466 limits assumed): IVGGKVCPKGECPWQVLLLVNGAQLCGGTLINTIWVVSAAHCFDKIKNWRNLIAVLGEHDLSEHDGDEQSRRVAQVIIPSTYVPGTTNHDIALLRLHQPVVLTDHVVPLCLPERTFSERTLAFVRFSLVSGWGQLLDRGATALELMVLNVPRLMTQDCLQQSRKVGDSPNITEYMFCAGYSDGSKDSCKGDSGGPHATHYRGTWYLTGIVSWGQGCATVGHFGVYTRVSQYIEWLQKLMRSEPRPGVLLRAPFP
# Protocol: as §2, §3, §4
# human plasma kallikrein = biological target: T8, human plasma kallikrein (Homo sapiens, UniProt P03952); assay: Enzyme inhibition assay (fluorogenic substrate H-Pro-Phe-Arg-AMC); details: Kallikrein inhibitory activity; 1 nM activated human kallikrein, 500 μM H-Pro-Phe-Arg-AMC, 1 hour room temperature; read-out: Avg. IC50
# T8 construct: purchased Enzyme Research Laboratories HPKa 1303
# How it was run: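 IC50 was determined from AMC fluorescence (ex 360/em 460 nm) after 1 h of reaction at room temperature with 500 μM final substrate. Before this, peptides in ten 8-fold serial dilutions were incubated 5 min with 1 nM final activated kallikrein. The buffer was Tris-HCl pH 7.2 containing NaCl, CaCl2 and Brij-35.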
# T1 sequence (P00742 41-179 limits assumed): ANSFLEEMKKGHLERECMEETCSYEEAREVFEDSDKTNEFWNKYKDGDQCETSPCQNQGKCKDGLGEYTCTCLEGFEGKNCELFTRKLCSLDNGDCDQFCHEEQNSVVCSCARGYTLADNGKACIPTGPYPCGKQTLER
# T1 sequence (P00742 235-488 limits assumed): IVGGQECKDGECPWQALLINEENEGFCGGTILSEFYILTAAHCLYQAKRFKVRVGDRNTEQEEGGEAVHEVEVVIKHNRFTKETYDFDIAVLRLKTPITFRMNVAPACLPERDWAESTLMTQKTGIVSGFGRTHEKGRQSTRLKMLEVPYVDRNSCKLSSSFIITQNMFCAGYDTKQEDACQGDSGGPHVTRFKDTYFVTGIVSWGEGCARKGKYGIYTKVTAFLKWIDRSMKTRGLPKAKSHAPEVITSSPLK
# T8 sequence (P03952 20-390 limits assumed): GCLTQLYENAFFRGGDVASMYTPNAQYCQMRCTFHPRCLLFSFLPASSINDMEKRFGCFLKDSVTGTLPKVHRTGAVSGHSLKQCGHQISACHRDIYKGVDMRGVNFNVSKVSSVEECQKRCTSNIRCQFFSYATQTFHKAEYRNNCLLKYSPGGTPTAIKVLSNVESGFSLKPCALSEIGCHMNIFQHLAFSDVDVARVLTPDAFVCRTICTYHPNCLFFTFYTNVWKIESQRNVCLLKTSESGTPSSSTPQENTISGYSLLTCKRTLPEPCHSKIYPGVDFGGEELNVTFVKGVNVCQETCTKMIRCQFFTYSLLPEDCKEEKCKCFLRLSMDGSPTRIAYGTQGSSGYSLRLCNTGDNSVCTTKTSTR
# T8 sequence (P03952 391-638 limits assumed): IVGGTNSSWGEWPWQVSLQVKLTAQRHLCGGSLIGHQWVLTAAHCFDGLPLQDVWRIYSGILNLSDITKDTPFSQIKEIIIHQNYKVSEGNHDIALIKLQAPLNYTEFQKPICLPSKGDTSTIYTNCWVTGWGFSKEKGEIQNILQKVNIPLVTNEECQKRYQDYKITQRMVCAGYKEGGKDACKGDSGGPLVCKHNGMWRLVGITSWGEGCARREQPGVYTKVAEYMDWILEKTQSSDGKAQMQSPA
# T2 sequence (P03951 19-387 limits assumed): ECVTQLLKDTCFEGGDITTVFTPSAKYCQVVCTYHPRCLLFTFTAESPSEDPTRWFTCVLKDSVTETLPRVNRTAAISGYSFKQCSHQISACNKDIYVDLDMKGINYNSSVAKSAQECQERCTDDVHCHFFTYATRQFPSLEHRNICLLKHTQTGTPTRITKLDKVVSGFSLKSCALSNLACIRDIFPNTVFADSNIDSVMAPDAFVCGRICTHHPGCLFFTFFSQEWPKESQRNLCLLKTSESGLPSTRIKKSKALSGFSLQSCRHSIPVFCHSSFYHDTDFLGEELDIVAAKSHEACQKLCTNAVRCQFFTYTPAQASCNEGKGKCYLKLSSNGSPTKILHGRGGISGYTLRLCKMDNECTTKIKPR
# T2 sequence (P03951 388-625 limits assumed): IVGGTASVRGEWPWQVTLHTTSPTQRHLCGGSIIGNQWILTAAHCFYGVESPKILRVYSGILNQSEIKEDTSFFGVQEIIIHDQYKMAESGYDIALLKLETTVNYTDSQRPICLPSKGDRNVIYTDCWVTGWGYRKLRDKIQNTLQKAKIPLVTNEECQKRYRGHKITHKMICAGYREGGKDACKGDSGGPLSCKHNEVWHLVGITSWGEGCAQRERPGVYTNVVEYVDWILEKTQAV
# T4 sequence (P00747 97-580 limits assumed): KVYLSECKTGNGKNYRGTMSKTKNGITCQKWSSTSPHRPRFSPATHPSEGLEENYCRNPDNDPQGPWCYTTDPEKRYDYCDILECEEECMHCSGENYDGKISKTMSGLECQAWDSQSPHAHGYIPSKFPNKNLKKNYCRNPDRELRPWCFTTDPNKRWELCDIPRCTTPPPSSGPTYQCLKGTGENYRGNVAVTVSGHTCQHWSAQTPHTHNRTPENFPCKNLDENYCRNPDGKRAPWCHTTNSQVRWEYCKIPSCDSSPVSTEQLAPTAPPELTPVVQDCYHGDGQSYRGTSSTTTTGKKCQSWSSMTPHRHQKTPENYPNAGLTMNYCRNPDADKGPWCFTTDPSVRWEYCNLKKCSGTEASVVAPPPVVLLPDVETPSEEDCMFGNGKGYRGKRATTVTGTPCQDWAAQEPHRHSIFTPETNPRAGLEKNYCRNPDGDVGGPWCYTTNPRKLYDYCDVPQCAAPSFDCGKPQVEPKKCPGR
# T4 sequence (P00747 581-810 limits assumed): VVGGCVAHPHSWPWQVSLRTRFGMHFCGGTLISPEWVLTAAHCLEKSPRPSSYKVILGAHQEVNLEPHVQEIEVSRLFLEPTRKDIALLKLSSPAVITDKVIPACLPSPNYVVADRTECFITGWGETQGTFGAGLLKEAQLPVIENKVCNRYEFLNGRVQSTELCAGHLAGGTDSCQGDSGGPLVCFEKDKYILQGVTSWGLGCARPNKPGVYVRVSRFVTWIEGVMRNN
IC50 (Factor Xa) [µM],IC50 (Factor XIa) [µM],IC50 (tissue kallikrein KLK13) [µM],IC50 (plasmin) [µM],IC50 (thrombin) [µM],IC50 (Factor XIIa) [µM],IC50 (Factor VIIa) [µM],IC50 (human plasma kallikrein) [µM],SMILES
> 100,> 15,> 100,> 100,> 100,> 100,> 100,0.0099,"CC[C@H](C)[C@@H]1NC(=O)[C@H](CO)NC(=O)[C@H](CCC(=O)O)NC(=O)[C@@H](NC(=O)[C@@H](N)CCSC)CSCc2cccc(c2)CSC[C@@H](C(=O)N[C@@H](CCCNC(=N)N)C(=O)N[C@H](C(N)=O)C(C)(C)C)NC1=O [Compound R2010, [mXylyl(2,6)]MCESICR-Tbg-NH2] (H-MCESICR[Tle]-NH2; linker 2-6 via mXylylene; N-terminus assumed)"
> 100,> 5,> 100,–,> 100,> 100,> 100,0.0034,"CSCC[C@H](N)C(=O)N[C@@H](CS)C(=O)N[C@@H](CC(N)=O)C(=O)N[C@@H](Cc1ccc(O)cc1)C(=O)N[C@@H](Cc1c[nH]c2ccccc12)C(=O)N[C@@H](CO)C(=O)N1CCC[C@H]1C(=O)N[C@@H](Cc1c[nH]c2ccccc12)C(=O)N[C@H](C(=O)N[C@@H](CCC(=O)O)C(=O)N[C@@H](CS)C(=O)N[C@@H](CO)C(=O)N[C@@H](C)C(N)=O)[C@@H](C)O [Compound R2104, MCNYWSPWTECSA-NH2] (H-MCNYWSPWTECSA-NH2)"
–,> 8.3,> 100,–,–,–,–,0.0083,"CSCC[C@H](N)C(=O)N[C@H]1CSCc2cccc(c2)CSC[C@@H](C(=O)N[C@@H](CCCNC(=N)N)C(=O)N[C@H](C(N)=O)C(C)C)NC(=O)[C@H](c2ccccc2)NC(=O)[C@H](CO)NC(=O)[C@H](CCC(=O)O)NC1=O [Compound R2012, [mXylyl(2,6)]MCES-Phg-CRV-NH2] (H-MCES[Phg]CRV-NH2; linker 2-6 via mXylylene; N-terminus assumed)"
> 100,> 13.8,> 100,> 100,> 100,> 100,> 100,–,"CC[C@H](C)[C@@H]1NC(=O)[C@H](CO)NC(=O)[C@@H](C)NC(=O)[C@@H](NC(C)=O)CSCc2cccc(c2)CSC[C@@H](C(=O)N[C@@H](CCCNC(=N)N)C(=O)N[C@H](C(N)=O)C(C)C)NC1=O [Compound R2047, [mXylyl(1,5)]Ac-C-a-SICRV-NH2] (Ac-C[dA]SICRV-NH2; linker 1-5 via mXylylene)"
–,–,–,–,–,–,–,> 100,"CC(=O)N[C@H]1CSSC[C@@H](C(N)=O)NC(=O)[C@H](C)NC(=O)[C@H]([C@@H](C)O)N(C)C(=O)[C@H](Cc2c[nH]c3ccccc23)NC(=O)[C@@H]2CCCN2C(=O)[C@H](CO)N(C)C(=O)[C@H](Cc2c[nH]c3ccccc23)NC(=O)[C@H](Cc2ccc(O)cc2)N(C)C(=O)[C@H](CC(N)=O)NC1=O [Compound R2224, [cyclo(1,10)]Ac-CN-nMeY-W-nMeS-PW-nMeT-AC-NH2] (Ac-CN[NMeY]W[NMeS]PW[NMeT]AC-NH2; disulfide 1-10)"
–,–,–,–,–,–,–,> 13.9,"CC(=O)N[C@@H](CS)C(=O)N[C@@H](CC(N)=O)C(=O)N[C@@H](Cc1ccc(O)cc1)C(=O)N[C@@H](Cc1c[nH]c2ccccc12)C(=O)N(C)[C@@H](CO)C(=O)N1CCC[C@H]1C(=O)N[C@@H](Cc1c[nH]c2ccccc12)C(=O)N[C@H](C(=O)N[C@@H](C)C(=O)N[C@@H](CS)C(N)=O)[C@@H](C)O [Compound R2237, Ac-CNYW-nMeS-PWTAC-NH2] (Ac-CNYW[NMeS]PWTAC-NH2)"
